Laboratory results published in patent US8017791B2, “Tri-substituted 2-benzhydryl-5-benzylamino-tetrahydro-pyran-4-ol and 6-benzhydryl-4-benzylamino-tetrahydro-pyran-3-ol analogues, and novel, 3,6-disubstituted pyran derivatives” (Wayne State University, priority 2003, dated 2011).
Entries after “also recorded” stand apart in the source; their conditions may differ. Like-named read-outs stand apart in the source and are kept apart here.

Assays:
DAT [1] = target: T1, DAT (Rattus norvegicus, UniProt P23977); assay: Inhibition of [3H]WIN 35,428 binding to DAT
T1 construct: rat striatum was the source for DAT, and cerebral cortex for SERT and NET; from tissue; P2 synaptosomal fraction for uptake
T1 sequence (P23977 whole entry): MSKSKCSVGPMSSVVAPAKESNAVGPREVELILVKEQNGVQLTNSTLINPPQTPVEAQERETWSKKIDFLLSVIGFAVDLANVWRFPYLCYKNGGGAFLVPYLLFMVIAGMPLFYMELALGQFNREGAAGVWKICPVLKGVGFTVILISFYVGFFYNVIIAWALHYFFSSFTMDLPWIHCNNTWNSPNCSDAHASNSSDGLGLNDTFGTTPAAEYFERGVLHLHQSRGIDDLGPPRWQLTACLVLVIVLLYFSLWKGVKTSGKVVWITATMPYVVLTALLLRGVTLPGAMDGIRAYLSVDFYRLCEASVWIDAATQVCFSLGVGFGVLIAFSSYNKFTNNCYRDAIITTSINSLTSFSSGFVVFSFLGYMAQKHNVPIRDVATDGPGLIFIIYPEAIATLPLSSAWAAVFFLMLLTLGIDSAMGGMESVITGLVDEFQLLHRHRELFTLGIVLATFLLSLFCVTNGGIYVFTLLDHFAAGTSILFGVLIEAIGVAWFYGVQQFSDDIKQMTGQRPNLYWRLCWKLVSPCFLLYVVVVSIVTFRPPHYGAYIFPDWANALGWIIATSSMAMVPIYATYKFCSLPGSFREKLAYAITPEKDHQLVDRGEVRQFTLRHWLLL
Description: (§1) Biology. […] Briefly, rat striatum was the source for DAT, and cerebral cortex for SERT and NET. […] Test compounds were dissolved in dimethyl sulfoxide (DMSO) and diluted out in 10% (v/v) DMSO. […] At least five triplicate concentrations of each test compound were studied, spaced evenly around the IC50 value. For DAT uptake assays, uptake of 50 nM [^3H]DA into rat striatal synaptosomes was measured exactly as described by us previously. Briefly, rat striatal P2 membrane fractions were incubated with test compounds for 8 min followed by the additional presence of [^3H]DA for 4 min at 25?. […] Construction of inhibition curves and dissolvement of test compounds were as described above.

SERT [2] = target: T2, SERT (Rattus norvegicus, UniProt P31652); assay: Inhibition of [3H]citalopram binding to SERT; details: for SERT binding/DAT binding: Table 3, selectivity ratio of IC50 values
T2 construct: rat striatum was the source for DAT, and cerebral cortex for SERT and NET; from tissue; host or cells: rat cerebral cortex
T2 sequence (P31652 whole entry): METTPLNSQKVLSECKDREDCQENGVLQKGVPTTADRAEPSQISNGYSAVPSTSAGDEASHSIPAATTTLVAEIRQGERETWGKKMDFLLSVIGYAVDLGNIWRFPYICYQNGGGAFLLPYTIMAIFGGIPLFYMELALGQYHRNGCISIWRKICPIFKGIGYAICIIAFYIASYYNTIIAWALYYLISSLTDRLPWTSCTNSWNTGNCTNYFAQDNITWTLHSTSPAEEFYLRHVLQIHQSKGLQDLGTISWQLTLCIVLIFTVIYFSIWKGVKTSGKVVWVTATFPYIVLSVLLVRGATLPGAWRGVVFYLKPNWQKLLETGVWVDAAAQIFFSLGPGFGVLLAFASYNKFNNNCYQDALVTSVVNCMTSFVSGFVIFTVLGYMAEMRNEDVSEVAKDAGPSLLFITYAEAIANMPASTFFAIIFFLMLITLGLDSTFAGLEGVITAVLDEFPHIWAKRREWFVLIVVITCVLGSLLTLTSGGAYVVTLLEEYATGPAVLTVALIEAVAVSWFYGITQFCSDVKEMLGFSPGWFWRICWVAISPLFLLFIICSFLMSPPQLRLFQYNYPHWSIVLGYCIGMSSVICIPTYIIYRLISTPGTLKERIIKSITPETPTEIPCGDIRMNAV
Description: as §1

NET [3] = target: NET (Rattus norvegicus, UniProt Q9WTR4); assay: Inhibition of [3H]nisoxetine binding to NET
Description: as §1

NET [4] = assay: Inhibition of [3H]nisoxetine binding to NET; parameters: species or system rat; details: Table 3; selectivity ratio of IC50 values
Description: as §1

DAT [5] = target: T1, DAT; assay: Inhibition of [3H]DA uptake by DAT into rat striatal synaptosomes; type: biochemical; details: for [3H]DA uptake/DAT binding: Table 3, ratio of IC50 values
Description: as §1

DAT [6] = target: T1, DAT; details: Table 2; values marked b: See reference # 22; read-out: DAT binding, IC50, [3H]Win 35,428; cited from earlier work
SERT [7] = target: T2, SERT; assay: SERT uptake inhibition, [3H]5-HT; type: biochemical
NET (Rattus norvegicus) = target: T3, NET (Rattus norvegicus); assay: NET uptake inhibition, [3H]NE; type: biochemical; details: Table 4; rat brain
T3 construct: from tissue
T3 sequence (Q63380 1-617): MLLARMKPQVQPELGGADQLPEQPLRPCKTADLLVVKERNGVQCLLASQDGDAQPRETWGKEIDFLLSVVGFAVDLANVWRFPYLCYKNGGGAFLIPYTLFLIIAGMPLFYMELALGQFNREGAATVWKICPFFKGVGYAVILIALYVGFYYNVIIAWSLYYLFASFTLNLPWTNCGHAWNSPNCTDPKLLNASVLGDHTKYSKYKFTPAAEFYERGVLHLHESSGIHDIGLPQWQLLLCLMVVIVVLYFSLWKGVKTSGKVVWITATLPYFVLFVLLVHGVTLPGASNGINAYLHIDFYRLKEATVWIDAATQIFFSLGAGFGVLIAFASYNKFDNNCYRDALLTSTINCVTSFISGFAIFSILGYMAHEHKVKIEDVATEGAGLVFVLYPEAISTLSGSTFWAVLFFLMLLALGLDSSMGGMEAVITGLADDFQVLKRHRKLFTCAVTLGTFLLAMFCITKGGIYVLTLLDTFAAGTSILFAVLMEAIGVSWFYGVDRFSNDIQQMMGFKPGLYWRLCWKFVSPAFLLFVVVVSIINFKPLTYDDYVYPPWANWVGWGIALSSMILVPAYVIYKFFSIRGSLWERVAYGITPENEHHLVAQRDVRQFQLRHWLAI

[8] = Table 1, rat striatum, read-out: Inhibition of [3H]Win 35,428 binding to DAT IC50
[9] = Table 2, average ± SEM of three to eight experiments, read-out: DAT binding, IC50, [3H]Win 35,428
[10] = Table 1, read-out: Inhibition of [3H]citalopram binding to SERT, IC50
[11] = Table 2, average ± SEM, read-out: SERT binding, IC50 [3H]citalopram
[12] = Table 1, read-out: Inhibition of [3H]nisoxetine binding to NET, IC50
[13] = Table 2, average ± SEM, read-out: NET binding, IC50 [3H]nisoxetine
[14] = Table 2, average ± SEM, read-out: DAT uptake, IC50 [3H]DA

Structure (SMILES)	IC50 (DAT [1]; [9])	IC50 (SERT [2]; [11])	SERT binding/DAT binding (SERT [2])	IC50 (NET [3]; [13])	NET binding/DAT binding (NET [4])	IC50 (DAT [5]; [14])	[3H]DA uptake/DAT binding (DAT [5])	also measured
O=[N+]([O-])c1ccc(CN[C@H]2CC[C@@H](C(c3ccccc3)c3ccccc3)OC2)cc1 (relative stereo) [Compound 16d, Cis-(6-benzhydryl-tetrahydropyran-3-yl)-(4-nitro-benzyl)-amine]						0.102 ± 0.007 µM	2.7	activity at DAT, in words (DAT [1]): the most active for the DAT; IC50 (DAT [1]; read-out: IC50 at the DAT): 0.0383 µM; potency in inhibiting binding versus uptake, in words (DAT [5]; DA uptake assay compared with DAT binding): three fold higher potency in inhibiting binding than uptake; IC50 (DAT [6]): 0.0383 µM
Clc1ccc(CN[C@H]2CC[C@@H](C(c3ccccc3)c3ccccc3)OC2)cc1Cl (relative stereo) [Compound 16i, Cis-(6-benzhydryl-tetrahydropyran-3-yl)-(3,4-dichloro-benzyl)-amine]	0.4 ± 0.031 µM	0.78 ± 0.084 µM	1.9	0.144 ± 0.025 µM	0.36	0.88 ± 0.136 µM		
Ic1ccc(CN[C@H]2CC[C@@H](C(c3ccccc3)c3ccccc3)OC2)cc1 (relative stereo) [Compound 16m, Cis-(6-benzhydryl-tetrahydropyran-3-yl)-(4-iodo-benzyl)-amine]	0.319 ± 0.021 µM	2.48 ± 0.145 µM	7.76	0.234 ± 0.017 µM	0.73	0.5 ± 0.034 µM	1.56	
c1ccc(C(c2ccccc2)[C@@H]2CC[C@H](NCc3ccc4[nH]ccc4c3)CO2)cc1 (relative stereo) [Compound 16n, Cis-(6-benzhydryl-tetrahydropyran-3-yl)-(1H-iodo-5-ylmethyl)-amine]		0.325 ± 0.02 µM	0.55	0.056 ± 0.006 µM	0.09			IC50 (DAT [1]; read-out: DAT binding, IC50, [3H]Win 35,428): 0.587 ± 0.066 µM; potency at NET, in words (NET [3]): high affinity; also recorded: strong selective potency at NET
Fc1ccc(CCN[C@H]2CC[C@@H](C(c3ccccc3)c3ccccc3)OC2)cc1 (relative stereo) [Compound 16p, Cis-(6-benzhydryl-tetrahydropyran-3-yl)-[2-(4-fluoro-phenyl)-ethyl]-amine]	0.129 ± 0.058 µM	3.95 µM	30.6	5.21 µM	40.4			
O[C@H]1C[C@H](C(c2ccccc2)c2ccccc2)OC[C@@H]1NCc1ccc(F)cc1 [(+)-29b, (2R,4S,5S)-2-benzhydryl-5-(4-fluoro-benzylamino)-tetrahydro-pyran-4-ol]								IC50 (DAT [1]): 1.03 ± 0.12 µM; IC50 (DAT [5]): 0.44 ± 0.03 µM; IC50 (SERT [7]): 5.56 ± 0.64 µM; IC50 (NET (Rattus norvegicus)): 1.13 ± 0.58 µM

More lines, main results first:

IC50 (DAT [1]; [9])	IC50 (SERT [2]; [11])	SERT binding/DAT binding (SERT [2])	IC50 (NET [3]; [13])	NET binding/DAT binding (NET [4])	IC50 (DAT [5]; [14])	[3H]DA uptake/DAT binding (DAT [5])	Structure (SMILES)	also measured
1.58 µM	4.78 µM	3	17.5 µM	11.1			Fc1ccc(CN[C@@H]2CCO[C@@H](C(c3ccccc3)c3ccccc3)C2)cc1 (relative stereo) [Compound 7b, trans-(2-benzhydryl-tetrahydropyran-4-yl)-(4-fluoro-benzyl)-amine]	activity at DAT, in words (DAT [1]): much weaker at DAT; IC50 (DAT [1]; [8]): 1.58 µM; IC50 (SERT [2]; [10]): 4.78 µM; IC50 (NET [3]; [12]): 17.5 µM
0.368 ± 0.085 µM	3.52 µM	9.6	0.695 ± 0.142 µM	1.9			Fc1ccc(CN[C@H]2CC[C@@H](C(c3ccccc3)c3ccccc3)OC2)cc1F (relative stereo) [Compound 16j, Cis-(6-benzhydryl-tetrahydropyran-3-yl)-(3,4-difluoro-benzyl)-amine]	
0.303 ± 0.014 µM	1.58 ± 0.097 µM	5.20	0.274 ± 0.029 µM	0.90	0.242 ± 0.039 µM	0.79	c1ccc(CN[C@H]2CC[C@@H](C(c3ccccc3)c3ccccc3)OC2)cc1 (relative stereo) [Compound 16k, Cis-(6-benzhydryl-tetrahydropyran-3-yl)-benzyl-amine]	IC50 (DAT [1]; [8]): 0.303 ± 0.014 µM; IC50 (SERT [2]; [10]): 1.58 ± 0.097 µM; IC50 (NET [3]; [12]): 0.274 ± 0.029 µM; IC50 (DAT [5]; Table 1, read-out: Inhibition of [3H]DA uptake by DAT, IC50): 0.242 ± 0.039 µM
0.202 ± 0.013 µM	2.36 ± 0.092 µM	11.69	0.592 ± 0.012 µM	2.93	0.251 ± 0.014 µM	1.24	Brc1ccc(CN[C@H]2CC[C@@H](C(c3ccccc3)c3ccccc3)OC2)cc1 (relative stereo) [Compound 16l, Cis-(6-benzhydryl-tetrahydropyran-3-yl)-(4-bromo-benzyl)-amine]	
